From patent US20160000762A1, “IMPROVING COGNITIVE FUNCTION” (THE REGENTS OF THE UNIVERSITY OF CALIFORNIA, priority 2013, published 2016) come the findings set out here.

One assay concerns Ras. Put plainly: GST-Raf1-RBD pulldown of active Ras, primary cortical neurons. Format: cell-based. The conditions noted are these: 5 μM. Here is the method:
GST-pull-down assay. To measure levels of active Ras, brain lysate homogenized with Ral buffer (25 mM Tris-HCl, pH 7.4, 250 mM NaCl, 0.5% NP40, 1.25 mM MgCl2, and 5% glycerol) from APP transgenic, APP knockout, or wild-type mice was incubated with GST-Raf-RBD purified protein coupled with GLUTATHIONE SEPHAROSE™ (Amersham) overnight at 4° C. After 24 hours, pellets were washed with Ral buffer and western blotting was conducted with anti-Ras.
We next investigated the molecular mechanism by which BTA-EG4 may alter dendritic spine formation. Ras, a small GTPase, is involved in dendritic spine formation and synaptic delivery of AMPA receptors (Zhu et al., 2002; Lee et al., 2011). Moreover, abnormal Ras signaling is associated with neurodegenerative disease, causing cognitive impairments and learning deficits (Stornetta and Zhu, 2011). Thus, we initially investigated the effect of BTA-EG4 on Ras signaling by treating primary hippocampal neurons with BTA-EG4 (5 μM) or control for 24 hrs. […] Further, levels of active Ras were elevated following BTA-EG4 treatment (5 μM) in primary cortical neurons (FIG. 7C) and following BTA-EG4 treatment (30 mg/kg) in wild-type mice (FIG. 7D). We also examined whether BTA-EG4 can alter the activity of downstream Ras signaling proteins, including p-ERK and p-CREB.

A further assay has as its system CA1 pyramidal neurons. Put plainly: Whole cell recordings (mEPSC, AMPA/NMDA) in CA1 pyramidal neurons of injected mice. Format: in vivo. The following applies: 30 mg/kg i.p., 2 weeks. Here is the method:
Electrophysiology. Transverse [for Schaffer collateral (SC) input studies] or horizontal [for temporammonic (TA) input studies] hippocampal slices (400-μm thick) were prepared from adult mice. Slices were made using ice-cold dissection buffer (in mM: 212.7 sucrose, 2.6KCl, 1.23NaH2PO4, 10 dextrose, 3MgCl2 and 1CaCl2; 5% CO2/95% O2), and recordings were done in a submersion-type chamber perfused with artificial cerebrospinal fluid (ACSF, in mM: 124NaCl, 5KCl, 1.25NaH2PO4, 26NaHCO3, 10 dextrose, 1.5MgCl2, and 2.5CaCl2; 5% CO2/95% O2, 29.5-30.5° C., 2 ml/min). For field potential recordings, synaptic responses were evoked using 0.2 ms duration pulses delivered through a bipolar glass stimulating electrode at 0.0333 Hz. A train of TBS consisted of a burst of 4 pulses at 100 Hz repeated 10 times at 5 Hz. For 4× TBS, 4 trains of TBS were given at 10 sec inter-train-intervals. […] Recording was initiated 2-3 min after break-in, and each cell was recorded for 10-15 min to collect enough mEPSCs for analysis. […] Cells were held at −70 mV, and the recorded mEPSC data were digitized at 10 kHz with a data acquisition board (National Instruments, Austin, Tex.) and acquired through custom-made programs using the Igor Pro software (WaveMetrics, Lake Oswego, Oreg.). […] Only about 4% of the total recorded cells (at most 1 cell per experimental group) were excluded due to negative correlation between mEPSC rise and amplitude. One hundred consecutive mEPSCs that met the rise time criteria were analyzed from each cell. AMPAR- and NMDAR-mediated currents were measured at −70 and +40 mV, respectively. AMPAR mediated EPSC amplitudes were measured at the peak of the current at −70 mV. NMDAR mediated EPSC amplitudes were measured 100 ms after the stimulation artifact. […]
To verify that the increase in dendritic spine density and synaptic proteins reflects an increase in functional synapses, we measured miniature excitatory postsynaptic currents (mEPSCs) from CA1 neurons in hippocampal slices following in vivo administration of BTA-EG4 (30 mg/kg, i.p.) for 2 weeks.

Turning to BTA-EG4, in the assay with Ras, the “levels of active Ras” value was “elevated”. For the same substance, in the assay with CA1 pyramidal neurons, the AMPAR/NMDAR ratio entry is “did not observe a change”, the “average mEPSC amplitude” value is reported as “no significant difference” and the “frequency of mEPSCs” value is given as “significantly increased”.
